{"source": "patent US11649259B2", "about": "“Polymorphic forms of deoxycytidine, compositions comprising the same and uses” (ZOGENIX MDS, INC., priority 2019, dated 2023)", "key": {"[1]": {"assay": "Stability of Form B by XRPD pattern after storage (no conversion to Form A)", "type": "physicochemical", "description": "“Stability”, as used herein, can be measured by confirming the Form B XRPD pattern of the material after a given storage time. Conversion of Form B to Form A deoxycytidine, as determined by)(RFD, indicates instability. Stability can also be measured by confirming compliance with the test attribute standards as outlined in Example 4. Test attributes include physical appearance, IR trace, HPLC trace for active and impurities, water content, residual solvent content, elemental impurities and microbial growth. One or more of these attributes can be measured after storage over a given period of time, e.g. 6 months, 12 months or more, and under various conditions, e.g. 25±2° C./60±5% relative humidity or 40±2° C./75±5% relative humidity).\nXRPD data for a mixture of A and B dC isoforms (2DC (A+B mix)), the B isoform produced in the small-scale manufacturing run (2DC(7)/S-P-17001 initial) and the isolated A isoform is provided in Table 2. The stability Form B was confirmed by determining the XRPD after 12 months of storage (2DC(7)/S-P-17001 12 month)."}, "[2]": {"assay": "Form B deoxycytidine 12-month stability study (Example 4)", "type": "physicochemical", "conditions": "four lots; long-term storage 25±2° C./60±5% relative humidity and accelerated storage 40±2° C./75±5% relative humidity; measured at 3, 6, 9 and 12 months", "protocol": "A study was conducted to determine the stability of Form B deoxycytidine prepared by the methods in Example 1 over a 12-month period. Four lots of material were studied: (1) and (2) were packaged in a polyethylene (PE) bag sealed with a cable tie, (3) was packed in a PE bag with silica gel sealed with a cable tie, and (4) was packaged in a PE drum sealed with a cap. […]\nAll attributes were measured initially (0 months) to confirm compliance with the standards above. Appearance, IR, HPLC and water content were then measured at 3, 6, 9 and 12 months to confirm compliance. Microbial content was measured again at 12 months."}}}
{"smiles": "Nc1ccn([C@H]2C[C@H](O)[C@@H](CO)O2)c(=O)n1", "note": "[Form B deoxycytidine, Deoxycytidine (2′-Deoxycytidine, dC)]", "values": [{"measurement": "stability of Form B, XRPD pattern after storage", "setting": "[1]; after 12 months of storage, lot 2DC(7)/S-P-17001, 4 kg scale", "result": "confirmed"}, {"measurement": "time for which the form is stable", "setting": "[1]; stored in a sealed container at e.g. room temperature", "result": "at least 6 months"}, {"measurement": "changes in test attributes (appearance, IR, HPLC, water content, microbial content) from initial to 12 months", "setting": "[2]", "result": "no significant changes"}]}
